# How the values were obtained:
# [1] = system: C-32 (human amelanotic melanoma) cells; experiment: WST-1 cell viability assay, C-32; format: cell-based; details: WST-1, 72 h exposure, ± SD, n = 6
# Protocol: (§1) The synthesized compounds were tested using three cancer cell lines—human amelanotic melanoma (C-32), human breast adenocarcinoma (MDA-MB-231), and human lung adenocarcinoma (A549)—and, for comparison, normal human dermal fibroblasts (HFF-1). The WST-1 (water-soluble tetrazole salt) assay was used to evaluate the effect of the synthesized compounds on the viability of cultured cells.
# (§2) Compounds were evaluated for their antiproliferative activity using three cultured cell lines: C-32 (human amelanotic melanoma, ATCC, Manassas, VA, USA), A549 (human lung adenocarcinoma, ATCC, Manassas, VA, USA), MDA-MB-231 (human breast adenocarcinoma derived from metastatic site: pleural effusion, ATCC, Manassas, VA, USA), together with HFF-1 (normal human dermal fibroblasts, ATCC, Manassas, VA, USA). The cultured cells were kept at 37 °C and 5% CO2.
# (§3) Cells were seeded in 96-well plates at 5000/well in 100 μL of medium. After 24 h of incubation, the medium was replaced with a new one with the addition of the test substance. After 72 h, the following tests were performed: with crystal violet (determination of the number of adherent cells in the culture), the WST-1 test (determination of the relative number of living cells and their metabolic activity), and the LDH test (determination of the relative number of dead cells in cultures—cytotoxicity of the tested substance).
# (§4) WST-1 test: The WST-1 test (Roche Diagnostics, Mannheim, Germany) allows one to determine the relative number of cells in cultures. Absorbance is directly proportional to the number of cells and their metabolic activity. The absorbance measurement is performed at λ = 450 nm (reference wave 600 nm).
# [2] = system: A549 (human lung adenocarcinoma) cells; experiment: WST-1 cell viability assay, A549; format: cell-based; details: WST-1, 72 h exposure, ± SD, n = 6
# Protocol: as §1, §2, §3, §4
# [3] = system: MDA-MB-231 (human breast adenocarcinoma) cells; experiment: WST-1 cell viability assay, MDA-MB-231; format: cell-based; details: WST-1, 72 h exposure, ± SD, n = 6
# Protocol: as §1, §2, §3, §4
# S. aureus ATCC 29213 = experiment: MTT assay of bacterial respiratory activity; format: cell-based, Staphylococcus aureus; details: S. aureus ATCC 29213
# Description: The MTT assay can be used to assess cell growth by measuring respiration. Bacterial cell respiratory activity (which is ultimately reflected in their viability) of less than 70% after exposure to the MIC values for each test compound is considered as a positive result for this test. This low level of cellular oxidative metabolism indicates inhibition of cell growth by inhibition of respiration. The lowest multiples of the MIC values by which inhibition of S. aureus ATCC 29213 viability [%] greater than 70% was achieved are shown in Table 4. […] Therefore, the antibacterial activity of the discussed compounds cannot be explained solely on the basis of respiration inhibition, so it is very difficult to draw a conclusion regarding the actual mechanism of action, since 8-HQs are multi-target agents, i.e., they affect several different targets at once (as discussed in the section dedicated to anticancer activity), which subsequently leads to the death of the treated resistant microorganisms.
# Compounds were prepared as previously stated and diluted in CaMH broth for S. aureus to achieve the desired final concentrations. S. aureus bacterial suspension in sterile distilled water at 0.5 McFarland was diluted 1:3. Inocula were added to each well by multi-inoculator. Diluted mycobacteria in broth free from inhibiting compounds were used as the growth control. All compounds were prepared in duplicate. Plates were incubated at 37 °C for 24 h for S. aureus. After the incubation period, 10% well volume of MTT (3-(4,5-dimethylthiazol-2-yl)-2,5-diphenyltetrazolium bromide) reagent (Sigma) was mixed into each well and incubated at 37 °C 1 h for S. aureus. Then, 100 µL of 17% sodium dodecyl sulphate in 40% dimethylformamide was added to each well. The plates were read at 570 nm. The absorbance readings from the cells grown in the presence of the tested compounds were compared with uninhibited cell growth to determine the relative percent inhibition. The percent inhibition was determined through MTT assay. The percent viability is calculated through the comparison of a measured value and that of the uninhibited control: % viability = OD570E/OD570P × 100, where OD570E is the reading from the compound-exposed cells, while OD570P is the reading from the uninhibited cells (positive control). Cytotoxic potential is determined by a percent viability of <70% [81, 82].
# [4] = system: HFF-1 (normal human dermal fibroblasts); experiment: WST-1 cell viability assay, normal HFF-1; format: cell-based; details: ± SD, n = 6
# Protocol: as §1, §2, §3, §4
Compound,IC50 ([1]; Homo sapiens),"IC50 ([2]; Homo sapiens, A549)",melting point,"IC50 ([3]; Homo sapiens, MDA-MB-231)",Conc.: lowest multiple of MIC with at least 70% inhibition of respiratory activity (S. aureus ATCC 29213),"IC50 ([4]; HFF-1, WST-1, 72 h exposure)",IC50 [1],IC50 [2],IC50 [3],"IC50 ([4]; WST-1, 72 h exposure)"
"C#CC(C)(C)NS(=O)(=O)c1ccc(OC)c2ncccc12 [6b, 8-Methoxy-N-(1,1-dimethyloprop-2-yn-1-yl)quinoline-5-sulfonamide]",40.6 ± 4.9 µM,> 100 µM,217 to 219 °C,> 100 µM,,,,,,
"C#CCN(C)S(=O)(=O)c1ccc(OC)c2ncccc12 [6c, 8-Methoxy-N-methyl-N-(prop-2-yn-1-yl)quinoline-5-sulfonamide]",70.1 ± 8.4 µM,> 100 µM,112 to 114 °C,> 100 µM,,,,,,
"O=C(O)c1cn(C2CC2)c2cc(N3CCNCC3)c(F)cc2c1=O [CPX, ciprofloxacin, reference compound]",,,,,32 × MIC,,,,,
"C#CCOc1ccc(NS(=O)(=O)c2ccc(OC)c3ncccc23)cc1 [6d, 8-Methoxy-N-[4-(prop-2-yn-1-yloxy)phenyl]quinoline-5-sulfonamide]",86.4 ± 3.9 µM,> 100 µM,217 to 219 °C,> 100 µM,,,,,,
"COc1cccc2c1C(=O)c1c(O)c3c(c(O)c1C2=O)C[C@@](O)(C(=O)CO)C[C@@H]3O[C@H]1C[C@H](N)[C@H](O)[C@H](C)O1 [DOX, doxorubicin, reference compound]",0.3 ± 0.02 µM,1 ± 0.1 µM,,0.6 ± 0.1 µM,,1.4 ± 0.1 µM,,,,
"N.N.[Cl][Pt][Cl] [CPT, cisplatin, reference compound]",,,,,,,10.6 ± 0.5 µM,17.3 ± 1.3 µM,10.3 ± 0.7 µM,26 ± 2 µM
"C#CCNS(=O)(=O)c1ccc(OC)c2ncccc12 [6a, 8-Methoxy-N-(prop-2-yn-1-yl)quinoline-5-sulfonamide]",> 100 µM,> 100 µM,161 to 163 °C,> 100 µM,,,,,,
"C#CCOc1ccccc1NS(=O)(=O)c1ccc(OC)c2ncccc12 [6f, 8-Methoxy-N-[2-(prop-2-yn-1-yloxy)phenyl]quinoline-5-sulfonamide]",27.7 ± 2.2 µM,> 100 µM,187 to 189 °C,> 100 µM,,,,,,
"C#CCOc1cccc(NS(=O)(=O)c2ccc(OC)c3ncccc23)c1 [6e, 8-Methoxy-N-[3-(prop-2-yn-1-yloxy)phenyl]quinoline-5-sulfonamide]",32.2 ± 4.8 µM,> 100 µM,190 to 192 °C,> 100 µM,,,,,,

# Now from value to molecule, other results behind:
IC50 ([1]; Homo sapiens),"IC50 ([2]; Homo sapiens, A549)",melting point,"IC50 ([3]; Homo sapiens, MDA-MB-231)",Conc.: lowest multiple of MIC with at least 70% inhibition of respiratory activity (S. aureus ATCC 29213),Compound,"IC50 ([4]; HFF-1, WST-1, 72 h exposure)",IC50 [1],IC50 [2],IC50 [3],"IC50 ([4]; WST-1, 72 h exposure)"
> 100 µM,> 100 µM,170 to 172 °C,> 100 µM,,"COc1ccc(S(=O)(=O)NCc2cn(Cc3ccccc3)nn2)c2cccnc12 [7b, N-[(1-Benzyl-1H-1,2,3-triazol-4-yl)methyl]-8-methoxyquinoline-5-sulfonamide]",,,,,
42.6 ± 3.4 µM,> 100 µM,214 to 216 °C,> 100 µM,,"COc1ccc(S(=O)(=O)N(C)Cc2cn(Cc3ccccc3)nn2)c2cccnc12 [7g, N-Methyl-N-[(1-benzyl-1H-1,2,3-triazol-4-yl)methyl]-8-methoxyquinoline-5-sulfonamide]",,,,,
> 100 µM,> 100 µM,139 to 141 °C,> 100 µM,,"COc1ccc(S(=O)(=O)Nc2ccc(OCc3cn(Cc4ccccc4)nn3)cc2)c2cccnc12 [7h, N-{4-[(1-Benzyl-1H-1,2,3-triazol-4-yl)methoxy]phenyl}-8-methoxyquinoline-5-sulfonamide]",,,,,
> 100 µM,> 100 µM,159 to 161 °C,> 100 µM,,"C=CCn1cc(CNS(=O)(=O)c2ccc(OC)c3ncccc23)nn1 [7a, N-[(1-Allyl-1H-1,2,3-triazol-4-yl)methyl]-8-methoxyquinoline-5-sulfonamide]",,,,,
89 ± 3.5 µM,> 100 µM,194 to 196 °C,> 100 µM,,"COc1ccc(S(=O)(=O)NCc2cn(Cc3ccc(F)cc3)nn2)c2cccnc12 [7c, N-{[1-(4-Fluorobenzyl)-1H-1,2,3-triazol-4-yl]methyl}-8-methoxyquinoline-5-sulfonamide]",,,,,
> 100 µM,> 100 µM,205 to 207 °C,72.2 ± 3.6 µM,,"COc1ccc(S(=O)(=O)NCc2cn(CSc3ccccc3)nn2)c2cccnc12 [7e, N-({1-[(Phenylthio)methyl]-1H-1,2,3-triazol-4-yl}methyl)-8-methoxyquinoline-5-sulfonamide]",,,,,
> 100 µM,> 100 µM,224 to 226 °C,> 100 µM,,"COc1ccc(S(=O)(=O)NCc2cn(-c3ccc(Cl)cc3)nn2)c2cccnc12 [7d, N-{[1-(4-Chlorophenyl)-1H-1,2,3-triazol-4-yl]methyl}-8-methoxyquinoline-5-sulfonamide]",,,,,
> 100 µM,> 100 µM,153 to 155 °C,> 100 µM,,"COc1ccc(S(=O)(=O)NC(C)(C)c2cn(Cc3ccccc3)nn2)c2cccnc12 [7f, N-[2-(1-Benzyl-1H-1,2,3-triazol-4-yl)propan-2-yl]-8-methoxyquinoline-5-sulfonamide]",,,,,

# — paper PMC11396667, “Design, Synthesis, and Anticancer and Antibacterial Activities of Quinoline-5-Sulfonamides” (Molecules, 2024)
